Reference: PMC12746157, “Light-Regulated Agonists Spatiotemporally Activating the Vitamin D Receptor Mitigate Psoriasis-like Inflammation in Mice without Inducing Hypercalcemia” (ACS Central Science, 2025)

Experiments:
[1] = Proportions of cis and trans at the photostationary state in DMSO from absorbance spectra (Ernst Fischer method); assay type: physicochemical
Protocol: 2. Photochemical characterization.
A 50 µM solution of each compound in DMSO was dispensed into a transparent 96-well plate (200 µL per well). The absorption spectra were recorded from 300 to 600 nm with 2 nm fixed intervals using a Tecan Spark 20M Multimode microplate reader. Initial measurements were performed in the dark, followed by spectra acquired immediately after each 3 min period of light irradiation at different wavelengths using 96-well LED array plates (LEDA Teleopto). Theoretical absorbance spectra corresponding to the pure cis isomer (100%) of each compound were calculated in order to obtain the theoretical percentage of cis isomer at each wavelength, according to the method described by Ernst Fischer (1967). […]
Table S6. Proportions of cis and trans at the photostationary state in DMSO. […]

VDR = VDR (Homo sapiens, UniProt P11473); experiment: Luminescent proximity homogeneous assay (AlphaScreen): interaction of purified VDR, RxR and TRAP220 coactivator fragment; assay type: biochemical; conditions: for EC50: n >= 3, read-out: Activity (pEC50) (converted); for Activity in the dark: dark (trans), concentrations up to 10 μM
Protocol: The activity of all molecules was evaluated using a luminescent proximity homogeneous assay to study interactions between purified VDR, RxR and a fragment of the transcriptional coactivator TRAP220 (Supporting Information). This method allowed us to monitor the interaction between TRAP220 and the activated VDR-RxR heterodimer, which is of mechanistic and physiological significance. Both the activation of VDR and the VDR-RxR heterodimer formation are necessary to promote the whole complex association. This system efficiently includes conformational events of the receptor upon activation that go beyond a simple binding measurement. […]
The activity of all molecules was evaluated using an in-vitro luminescent proximity homogeneous assay by using the Alphascreen technology (Cat No. 6760619R, Perkin Elmer, now Revvity). In a transparent 96-well preplate, 10X concentrations of the compounds were prepared in assay buffer (0.1% bovine serum albumin, 2 mM 1,4-dithiothreitol, 25 mM HEPES and 100 mM NaCl; pH 7.3). LSN2148936 was used as positive control. Purified histidine-tagged VDR (44 µM), flag-RxRa (5.7 µM), biotin tagged TRAP220 transcriptional coactivator (500 µM), and the donor and acceptor beads from the AlphaScreen kit (2 µL/mL each), were diluted in assay buffer. In the dark, 6 µL/well of each test compound were pipetted on a white, shallow 96-well ProxiPlateTM […]
(Perkin Elmer, now Revvity, Cat.No. 6006290) in duplicate. Immediately, 54 µL of the protein solution were added and the plate was covered and incubated for 30 min at room temperature in the dark. Meanwhile, the plate with the 10X dilutions was illuminated at 365 nm for 3 min in a 96-well DED array plate (LEDA Teleopto), to allow the photoconversion of the molecules to their cis configuration. The illuminated compounds were mixed with the protein solution and incubated as described above for the plate in the dark. After the incubation time, the counts of both, the dark and illuminated plates, were measured in a Tecan Spark 20M Multimode plate reader with defined settings (excitation: 680 nm, emission: 520-620 nm, excitation time: 100ms, integration time: 300 ms). Biotinylated-His6 peptide (PerkinElmer) was used as a quality control reagent for AlphaScreen® assays and to evaluate compound interaction with the method. The raw data were normalized to the effect of the buffer (0%) and the maximum response obtained with LSN2148936 (100%). Dose-response curves and EC50 values were calculated with Graphpad software. Each experiment was performed in triplicate, with 2 replicates per plate.
4. Hydrogen/deuterium exchange coupled to mass spectrometry (HDX-MS)
The HDX-MS experiments were performed with an in-house automated modular system interfaced with an Orbitrap Exploris 480 mass spectrometer.1 Two inter-day experiments were conducted: one in the dark (first day) and one illuminated with 365 nm light (second day). Sample preparation and on-exchange reactions were performed on opaque plates (VWR® Real-Time […]
mm, Part Nº BC5226) light source was positioned above the Tecan system used for sample preparation. The distance between the UV light and the opaque plates was 80 cm. The 365 nm light illuminated the sample preparation process and the on-exchange reaction on the second day.
A 10 µM VDR-LBD protein stock solution was prepared in 20 mM HEPES buffer (with 150 mM NaCl, 10 mM D-L Methionine and 5 mM DTT) at pH 7.5. The compound 11b was prepared at 10 mM in DMSO. The protein: compound-complex (1:10 molar ratio) was pre-incubated for 1h before the first on-exchange reaction. The HDX reaction was initiated by a 5-fold dilution of the protein stock solution, in the presence and absence of compound 11b, in the corresponding Deuterated buffer at room temperature. Samples were prepared in parallel with three replicates of […]
time point, HDX reactions were quenched with a solution of 3 M Urea and 1% TFA (pH 2.5) followed by online proteolysis with an in-house Pepsin immobilized column and desalting […]

[2] = after illumination (365 nm) for 3 min, mean ± SEM
[3] = after illumination (365 nm) for 3 min, normalized to maximum response of LSN2148936 (100%), mean ± SEM

Sequence of VDR (P11473 whole entry, the tested form may be a part): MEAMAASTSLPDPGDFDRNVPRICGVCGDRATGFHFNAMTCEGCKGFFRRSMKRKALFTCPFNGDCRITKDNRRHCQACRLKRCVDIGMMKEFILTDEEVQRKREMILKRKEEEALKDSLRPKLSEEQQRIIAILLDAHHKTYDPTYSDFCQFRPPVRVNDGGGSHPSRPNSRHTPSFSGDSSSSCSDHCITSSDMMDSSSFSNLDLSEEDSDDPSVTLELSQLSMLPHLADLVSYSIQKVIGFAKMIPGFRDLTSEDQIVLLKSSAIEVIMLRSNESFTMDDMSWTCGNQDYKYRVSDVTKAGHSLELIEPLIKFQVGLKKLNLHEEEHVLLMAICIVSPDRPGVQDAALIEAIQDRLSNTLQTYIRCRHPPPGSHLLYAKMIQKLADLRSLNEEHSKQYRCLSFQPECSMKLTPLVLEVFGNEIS
Sequence of VDR (P19793 whole entry partner, the tested form may be a part): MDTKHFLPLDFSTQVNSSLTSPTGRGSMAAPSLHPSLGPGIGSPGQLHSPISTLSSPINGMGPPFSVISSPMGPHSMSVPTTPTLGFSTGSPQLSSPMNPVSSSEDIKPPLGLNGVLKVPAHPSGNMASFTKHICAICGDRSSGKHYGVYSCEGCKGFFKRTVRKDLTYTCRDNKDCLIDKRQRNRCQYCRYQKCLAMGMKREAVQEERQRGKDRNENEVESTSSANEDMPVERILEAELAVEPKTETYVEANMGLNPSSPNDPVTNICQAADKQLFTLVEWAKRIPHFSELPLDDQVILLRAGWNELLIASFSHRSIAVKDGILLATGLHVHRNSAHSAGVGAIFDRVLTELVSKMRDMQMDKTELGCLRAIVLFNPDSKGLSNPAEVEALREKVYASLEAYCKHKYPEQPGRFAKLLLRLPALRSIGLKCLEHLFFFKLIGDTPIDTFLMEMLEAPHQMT
Sequence of VDR (Q15648 whole entry partner, the tested form may be a part): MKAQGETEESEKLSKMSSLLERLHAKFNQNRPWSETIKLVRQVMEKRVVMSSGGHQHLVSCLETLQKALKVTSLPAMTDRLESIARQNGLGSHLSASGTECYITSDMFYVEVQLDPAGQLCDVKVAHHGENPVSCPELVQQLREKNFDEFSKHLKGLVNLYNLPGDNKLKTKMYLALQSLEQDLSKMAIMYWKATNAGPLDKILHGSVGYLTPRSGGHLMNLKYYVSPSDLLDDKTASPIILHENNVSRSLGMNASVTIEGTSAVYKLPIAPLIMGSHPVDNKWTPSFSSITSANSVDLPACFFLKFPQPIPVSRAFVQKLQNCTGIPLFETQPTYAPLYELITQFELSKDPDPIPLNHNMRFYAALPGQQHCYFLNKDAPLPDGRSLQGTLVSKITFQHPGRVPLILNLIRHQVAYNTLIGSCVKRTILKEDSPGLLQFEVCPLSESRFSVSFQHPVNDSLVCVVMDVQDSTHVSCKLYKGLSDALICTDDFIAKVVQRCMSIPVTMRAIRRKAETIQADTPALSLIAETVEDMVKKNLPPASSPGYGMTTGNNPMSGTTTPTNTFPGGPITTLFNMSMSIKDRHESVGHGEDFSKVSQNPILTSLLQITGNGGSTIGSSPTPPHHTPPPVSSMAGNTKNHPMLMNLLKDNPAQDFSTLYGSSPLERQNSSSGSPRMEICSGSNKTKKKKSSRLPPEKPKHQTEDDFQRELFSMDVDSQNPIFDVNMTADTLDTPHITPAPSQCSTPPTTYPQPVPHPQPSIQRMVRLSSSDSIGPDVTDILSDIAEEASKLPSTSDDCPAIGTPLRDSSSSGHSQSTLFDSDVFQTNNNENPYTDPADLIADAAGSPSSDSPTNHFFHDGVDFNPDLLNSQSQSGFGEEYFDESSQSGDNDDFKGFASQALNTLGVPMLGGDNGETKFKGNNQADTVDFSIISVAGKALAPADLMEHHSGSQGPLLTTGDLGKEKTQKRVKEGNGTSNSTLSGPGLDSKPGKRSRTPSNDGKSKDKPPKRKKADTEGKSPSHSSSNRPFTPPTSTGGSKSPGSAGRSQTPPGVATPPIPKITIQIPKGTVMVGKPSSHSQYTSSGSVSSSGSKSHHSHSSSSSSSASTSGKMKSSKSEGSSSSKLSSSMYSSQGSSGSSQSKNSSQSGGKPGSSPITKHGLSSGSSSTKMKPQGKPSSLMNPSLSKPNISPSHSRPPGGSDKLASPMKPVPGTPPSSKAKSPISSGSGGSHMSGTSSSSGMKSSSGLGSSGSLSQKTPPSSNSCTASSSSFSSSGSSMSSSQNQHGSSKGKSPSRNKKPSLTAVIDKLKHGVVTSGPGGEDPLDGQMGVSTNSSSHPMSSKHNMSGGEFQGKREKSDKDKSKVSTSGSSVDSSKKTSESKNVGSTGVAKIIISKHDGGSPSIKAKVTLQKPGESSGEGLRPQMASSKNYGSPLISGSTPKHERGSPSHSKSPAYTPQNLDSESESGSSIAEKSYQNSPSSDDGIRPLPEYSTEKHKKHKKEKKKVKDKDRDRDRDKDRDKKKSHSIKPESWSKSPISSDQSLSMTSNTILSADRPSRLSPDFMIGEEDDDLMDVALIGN

SMILES	%cis at the photostationary state ([1]; 365 nm)	%trans at the photostationary state ([1]; 365 nm)	%cis at the photostationary state ([1]; 380 nm)	%trans at the photostationary state ([1]; 380 nm)	%cis at the photostationary state ([1]; 405 nm)	%trans at the photostationary state ([1]; 405 nm)	%cis at the photostationary state ([1]; 420 nm)	%trans at the photostationary state ([1]; 420 nm)	%cis at the photostationary state ([1]; 470 nm)	%trans at the photostationary state ([1]; 470 nm)	%cis at the photostationary state ([1]; 500 nm)	%trans at the photostationary state ([1]; 500 nm)	%cis at the photostationary state ([1]; 530 nm)	%trans at the photostationary state ([1]; 530 nm)	EC50 (VDR; [2]) [nM]	Emax (VDR; [3]) [%]	%cis at the photostationary state ([1]; 420 nm, listed as PhotoVDRM)	Activity (Emax) (VDR; after illumination (365 nm) for 3 min, normalized to maximum response of LSN2148936 (100%), mean ± SEM, listed as 11b (PhotoVDRM)) [%]	Activity in the dark (VDR)	antagonist activity (VDR; several concentrations with LSN2148936 at 300nM, dark or 365 nm)
Cc1cc(OCC(O)C(C)(C)C)ccc1N=Nc1cccc(-c2ccc(C(=O)O)cc2)c1 (centres unmarked) [Compound 11b]	96,87%	3,13%	95,62%	4,38%	63,64%	36,36%	60,47%	39,53%	31,30%	68,70%	32,81%	67,19%	29,14%	70,86%	58.9	> 80	up to 60%	84 ± 2.62	inactive	does no act as antagonist
COC(=O)c1ccc(-c2cccc(/N=N/c3ccc(OCC(O)C(C)(C)C)c(C)c3)c2)c(C)c1 (centres unmarked) [Compound 10c]	97,00%	3,00%	95,62%	4,38%	61,14%	38,86%	59,71%	40,29%	30,53%	69,47%	26,82%	73,18%	21,34%	78,66%	1860	29 ± 4.31				
COC(=O)c1ccc(-c2cccc(/N=N/c3ccc(OCC(O)C(C)(C)C)cc3C)c2)c(C)c1 (centres unmarked) [Compound 10d]	96,30%	3,70%	95,32%	4,68%	62,22%	37,78%	59,99%	40,01%	29,82%	70,18%	25,21%	74,79%	20,03%	79,97%	813	30 ± 1.71				

Now from value to compound, other results behind:

%cis at the photostationary state ([1]; 365 nm)	%trans at the photostationary state ([1]; 365 nm)	%cis at the photostationary state ([1]; 380 nm)	%trans at the photostationary state ([1]; 380 nm)	%cis at the photostationary state ([1]; 405 nm)	%trans at the photostationary state ([1]; 405 nm)	%cis at the photostationary state ([1]; 420 nm)	%trans at the photostationary state ([1]; 420 nm)	%cis at the photostationary state ([1]; 470 nm)	%trans at the photostationary state ([1]; 470 nm)	%cis at the photostationary state ([1]; 500 nm)	%trans at the photostationary state ([1]; 500 nm)	%cis at the photostationary state ([1]; 530 nm)	%trans at the photostationary state ([1]; 530 nm)	EC50 (VDR; [2]) [nM]	Emax (VDR; [3]) [%]	SMILES	%cis at the photostationary state ([1]; 420 nm, listed as PhotoVDRM)	Activity (Emax) (VDR; after illumination (365 nm) for 3 min, normalized to maximum response of LSN2148936 (100%), mean ± SEM, listed as 11b (PhotoVDRM)) [%]	Activity in the dark (VDR)	antagonist activity (VDR; several concentrations with LSN2148936 at 300nM, dark or 365 nm)
97,22%	2,78%	94,72%	5,28%	61,36%	38,64%	59,26%	40,74%	31,49%	68,51%	28,18%	71,82%	22,70%	77,30%	575	68 ± 3.73	Cc1cc(/N=N/c2cccc(-c3ccc(C(=O)O)cc3C)c2)ccc1OCC(O)C(C)(C)C (centres unmarked) [Compound 11c]				
96,79%	3,21%	95,58%	4,42%	61,42%	38,58%	54,69%	45,31%	28,11%	71,89%	29,74%	70,26%	25,59%	74,41%	209	93 ± 6.73	Cc1cc(OCC(O)C(C)(C)C)ccc1/N=N/c1cccc(-c2ccc(C(=O)O)cc2C)c1 (centres unmarked) [Compound 11d]				
94,52%	5,48%	92,81%	7,19%	60,54%	39,46%	58,09%	41,91%	29,80%	70,20%	26,59%	73,41%	21,22%	78,78%	1260	60 ± 1.26	Cc1cc(/N=N/c2cccc(-c3ccc(C(=O)O)cc3)c2)ccc1OCC(O)C(C)(C)C (centres unmarked) [Compound 11a]			small increase in the activity	
